Measurements as given in ChEMBL document CHEMBL1201862, “PubChem BioAssay data set” (2004).
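Compound exposure: 48 hours, 5 concentrations, 96-well plates. GI50 is the concentration that inhibits growth by half.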 The source made the active and inactive calls. Cut-off read from the data, not from the text of the source: active = GI50 up to about 1.1 µM and inactive = higher.

Experiments:
Test in all cases: growth of human tumour cells (NCI), 48 h
[1] = test system: 786-0
[2] = test system: A549
[3] = test system: ACHN
[4] = test system: BT-549
[5] = test system: CAKI-1
[6] = test system: CCRF-CEM
[7] = test system: COLO 205
[8] = test system: DU-145
[9] = test system: EKVX
[10] = test system: HCC 2998
[11] = test system: HCT-116
[12] = test system: HCT-15
[13] = test system: HOP-62
[14] = test system: HOP-92
[15] = test system: HT-29
[16] = test system: Hs-578T
[17] = test system: IGROV-1
[18] = test system: K562
[19] = test system: KM12
[20] = test system: LOX IMVI
[21] = test system: MCF7
[22] = test system: MDA-MB-231
[23] = test system: MDA-MB-435
[24] = test system: MOLT-4
[25] = test system: Malme-3M
[26] = test system: NCI-H23
[27] = test system: NCI-H460
[28] = test system: NCI-H522
[29] = test system: NCI/ADR-RES
[30] = test system: OVCAR-3
[31] = test system: OVCAR-4
[32] = test system: OVCAR-5
[33] = test system: OVCAR-8
[34] = test system: PC-3
[35] = test system: RXF 393
[36] = test system: SF-268
[37] = test system: SF-295
[38] = test system: SF-539
[39] = test system: SK-MEL-28
[40] = test system: SK-MEL-2
[41] = test system: SK-MEL-5
[42] = test system: SK-OV-3
[43] = test system: SN12C
[44] = test system: SNB-19
[45] = test system: SNB-75
[46] = test system: SR
[47] = test system: SW-620
[48] = test system: T47D
[49] = test system: TK-10
[50] = test system: U-251
[51] = test system: UACC-257
[52] = test system: UACC-62
[53] = test system: UO-31

## CN(CCNC(=S)c1cn(C)c2c1ccc1ccccc12)CCNC(=S)c1cn(C)c2c1ccc1ccccc12
[1]
  GI50: 53.6 µM (inactive)
[2]
  GI50: 64.3 µM (inactive)
[3]
  GI50: > 100 µM (inactive)
[4]
  GI50: > 100 µM (inactive)
[5]
  GI50: > 100 µM (inactive)
[6]
  GI50: 17.9 µM (inactive)
[7]
  GI50: > 100 µM (inactive)
[8]
  GI50: 48.2 µM (inactive)
[9]
  GI50: 67.9 µM (inactive)
[10]
  GI50: 16.6 µM (inactive)
[11]
  GI50: 24.4 µM (inactive)
[12]
  GI50: > 100 µM
[13]
  GI50: > 100 µM (inactive)
[14]
  GI50: 5.64 µM (inactive)
[15]
  GI50: 27.5 µM (inactive)
[16]
  GI50: 69.2 µM (inactive)
[17]
  GI50: 29.4 µM (inactive)
[18]
  GI50: 54.8 µM (inactive)
[19]
  GI50: 37.1 µM (inactive)
[20]
  GI50: 18.5 µM (inactive)
[21]
  GI50: 33.5 µM (inactive)
[22]
  GI50: 38.7 µM (inactive)
[23]
  GI50: 96.8 µM (inactive)
[24]
  GI50: 24.7 µM (inactive)
[25]
  GI50: > 100 µM (inactive)
[26]
  GI50: 48 µM (inactive)
[27]
  GI50: 71.8 µM (inactive)
[28]
  GI50: 51.2 µM (inactive)
[29]
  GI50: > 100 µM (inactive)
[30]
  GI50: > 100 µM (inactive)
[31]
  GI50: 11.3 µM (inactive)
[32]
  GI50: > 100 µM (inactive)
[33]
  GI50: > 100 µM (inactive)
[34]
  GI50: 28.6 µM (inactive)
[35]
  GI50: 2.05 µM (inactive)
[36]
  GI50: 74 µM (inactive)
[37]
  GI50: 99.3 µM (inactive)
[38]
  GI50: 47.6 µM (inactive)
[39]
  GI50: 64.4 µM (inactive)
[40]
  GI50: > 100 µM (inactive)
[41]
  GI50: > 100 µM (inactive)
[42]
  GI50: > 100 µM (inactive)
[43]
  GI50: 40.9 µM (inactive)
[44]
  GI50: > 100 µM (inactive)
[45]
  GI50: 10.7 µM (inactive)
[46]
  GI50: 49.5 µM (inactive)
[47]
  GI50: > 100 µM (inactive)
[48]
  GI50: 3.74 µM (inactive)
[49]
  GI50: > 100 µM (inactive)
[50]
  GI50: 23.7 µM (inactive)
[51]
  GI50: 46.2 µM (inactive)
[52]
  GI50: > 100 µM (inactive)
[53]
  GI50: 32.1 µM (inactive)
